Earlier results, collected in patent US10206391B2, “Strobilurin formulations” (priority 2011, dated 2019).
≈ marks a conversion by molar mass, not a printed value. Read-outs that look alike come from different tables or passages of the source.

Experiments:
[1] = not given; remark: listed apart in the source
[2] = not given; remark: listed apart in the source
[3] = not given; remark: listed apart in the source

CNC(=O)/C(=N/OC)c1ccccc1COc1cc(C)ccc1C [Dimoxystrobin, (E)-2-(methoxyimino)-N-methyl-2-[α-(2,5-xylyloxy)-o-tolyl]acetamide]
KOW logP (pH 6.5): logP = 3.59
Time stable in aqueous solution ([1]; pH 4-9, 50° C.): Stable >30 d in aqueous solution at pH 4-9, 50 °C
Metabolic stability in plants and xylem systemicity (in words) (plants; plant tissues): metabolically sufficiently stable in plants and show a pronounced xylem systemicity
Solubility in DMF ([2]; 20° C.): 200 to 250 mg/mL
Solubility in acetone ([2]; 20° C.): 67 to 80 mg/mL
Solubility in acetonitrile ([2]; 20° C.): 50 to 57 mg/mL
Solubility in dichloromethane ([2]; 20° C.): > 250 mg/mL
Solubility in ethyl acetate ([2]; 20° C.): 33 to 40 mg/mL
Solubility in isopropanol ([2]; 20° C.): isopropanol, n-heptane, n-octanol and olive oil all <10 g/l
Solubility in methanol ([2]; 20° C.): 20 to 25 mg/mL
Solubility in n-heptane ([2]; 20° C.): isopropanol, n-heptane, n-octanol and olive oil all <10 g/l
Solubility in n-octanol (octanol) ([2]; 20° C.): isopropanol, n-heptane, n-octanol and olive oil all <10 g/l
Solubility in olive oil ([2]; 20° C.): isopropanol, n-heptane, n-octanol and olive oil all <10 g/l
Solubility in toluene ([2]; 20° C.): 20 to 25 mg/mL
Solubility in water ([2]; pH 5.7, 20° C.): 0.0043 mg/mL (≈ 0.0132 mM)
Solubility in water ([2]; pH 8.0, 20° C.): 0.0035 mg/mL (≈ 0.0107 mM)
DT50 for aqueous photolysis ([3]; water, pH 7): DT50 for aqueous photolysis 30 days, pH7

CC1(c2ccc(Oc3ccccc3)cc2)OC(=O)N(Nc2ccccc2)C1=O (centres unmarked) [Famoxadone, 3-anilino-5-methyl-5-(4-phenoxyphenyl)-1,3-oxazolidine-2,4-dione]
KOW logP (pH 7): logP = 4.65
DT50 in water with light ([1]; pH 5, 25° C.): 4.6 d (pH 5, 25° C.).
DT50 in water with no light ([1]; pH 5, 25° C.): 41 days
DT50 in water with no light ([1]; pH 7, 25° C.): 2 days
DT50 in water with no light ([1]; pH 9, 25° C.): 0.0646 d (pH 9) (25° C.); in water with light, DT50
DT50 for aqueous photolysis ([3]; pH 5): 4.6 days
DT50 for aqueous photolysis ([3]; water, pH 7): 1.9 days

CO/N=C(/C1=NOCCO1)c1ccccc1Oc1ncnc(Oc2ccccc2Cl)c1F [Fluxastrobin, (E)-{2-[6-(2-chlorophenoxy)-5-fluoropyrimidin-4-yloxy]phenyl}(5,6-dihydro-1,4,2-dioxazin-3-yl)methanone O-methyloxime]
KOW logP (20° C.): logP = 2.86
Hydrolysis DT50 ([1]; pH 4, 7 and 9, 50° C.): Hydrolysis DT50 >1 y (pH 4, 7 and 9, 50° C.);
Metabolic stability in plants and xylem systemicity (in words) (plants; plant tissues): metabolically sufficiently stable in plants and show a pronounced xylem systemicity
Solubility in dichloromethane ([2]; 20° C.): > 250 mg/mL
Solubility in isopropanol ([2]; 20° C.): 6.7 mg/mL (≈ 14.6 mM)
Solubility in n-heptane ([2]; 20° C.): 0.04 mg/mL (≈ 0.0872 mM)
Solubility in xylene ([2]; 20° C.): 38.1 mg/mL (≈ 83 mM)
Solubility in water ([2]; pH 7, 20° C.): 0.00229 mg/mL (≈ 0.00499 mM)
Solubility in water ([2]; unbuffered, 20° C.): 0.00256 mg/mL (≈ 0.00558 mM)
Photolytic stability DT50 ([3]; sterile aqueous phosphate buffer, pH 7): DT50 3.8-4.1 days in sterile aqueous phosphate
Photolytic stability DT50 ([3]; under solar summer conditions, Phoenix AZ, USA in June): buffer, pH 7; 19- 22 days under solar summer

CO/N=C(/C(=O)OC)c1ccccc1COc1ccccc1C [Kresoxim-methyl, methyl(E)-methoxyimino[2-(o-tolyloxymethyl)phenyl]acetate]
Stability (in words) ([1]; pH 5, text wrapped over r19-r20 reads 'relatively stable at pH 5'): stable at pH 5.
Hydrolysis DT50 ([1]; pH 7): 816 h
Hydrolysis DT50 ([1]; pH 9): 7 h
DT50 for aqueous photolysis ([3]; water, pH 7): Photolysis DT50 18.2 days, pH7

CNC(=O)/C(=N/OC)c1ccccc1CO/N=C(C)/C(=N/OC)C(/C)=N/OC [Orysastrobin, 2[(E)-methoxyimino]-2-[(3E,6E)-2-{5-[(E)-methoxyimino]-4,6-dimethyl-2,8-dioxa-3,7-diazanona-3,6-dienyl}phenyl]-N-methylacetamide]
KOW logP (20° C.): logP = 2.36
Solubility in water ([2]; 20° C.): water 80.6 mg/l (20° C.).
DT50 for aqueous photolysis ([3]; water, pH 7): Photolysis DT50 0.8 days, pH7

CO/C=C(/C(=O)OC)c1ccccc1COc1cccc(C(F)(F)F)n1 [Picoxystrobin, methyl(E)-3-methoxy-2-[2-(6-trifluoromethyl-2-pyridyloxymethyl)phenyl]acrylate]
DT50 ([1]; pH 9, 50° C.): ~15 days
Metabolic stability in plants and xylem systemicity (in words) (plants; in vivo): metabolically sufficiently stable in plants and show a pronounced xylem systemicity
DT50 for aqueous photolysis ([3]; water, pH 7): DT50 for aqueous photolysis 21 days, pH7

COC(=O)N(OC)c1ccccc1COc1ccn(-c2ccc(Cl)cc2)n1 [Pyraclostrobin, methyl N-{2-[1-(4-chlorophenyl)pyrazol-3-yloxymethyl]phenyl}(N-methoxy)carbamate]
Time stable ([1]; pH 5-7, 25° C.): Stable >30 d (pH 5-7, 25° C.).
Solubility in acetone ([2]; 20° C.): acetonitrile, dichloromethane and toluene >500 (all g/l
Solubility in acetonitrile ([2]; 20° C.): acetonitrile, dichloromethane and toluene >500 (all g/l
Solubility in dichloromethane ([2]; 20° C.): acetonitrile, dichloromethane and toluene >500 (all g/l
Solubility in ethyl acetate ([2]; 20° C.): acetonitrile, dichloromethane and toluene >500 (all g/l
Solubility in isopropanol ([2]; 20° C.): 30.0 mg/mL (≈ 77.4 mM)
Solubility in methanol ([2]; 20° C.): methanol 100.8, acetone, ethyl acetate, g/l
Solubility in n-heptane ([2]; 20° C.): 3.7 mg/mL (≈ 9.54 mM)
Solubility in n-octanol (octanol) ([2]; 20° C.): 24.2 mg/mL (≈ 62.4 mM)
Solubility in olive oil ([2]; 20° C.): 28.0 mg/mL (≈ 72.2 mM)
Solubility in toluene ([2]; 20° C.): acetonitrile, dichloromethane and toluene >500 (all g/l
DT50 for aqueous photolysis ([3]; water, pH 7): Photolysis DT50 in water 1.7 days, pH7

CO/N=C(/C(=O)OC)c1ccccc1CO/N=C(\C)c1cccc(C(F)(F)F)c1 [Trifloxystrobin, methyl(E)-methoxyimino-{(E)-α-[1-(α,α,α-trifluoro-m-tolyl)ethylideneaminooxy]-o-tolyl}acetate]
Stability to hydrolysis (in words) ([1]; pH 5): stable
Hydrolysis DT50 ([1]; pH 7, 20° C.): 11.4 w
Hydrolysis DT50 ([1]; pH 9, 20° C.): 27.1 h
DT50 for aqueous photolysis ([3]; pH 5): 1.1 days
DT50 for aqueous photolysis ([3]; water, pH 7): 2.7 days
